Here are results for one compound from publication PMC4632126, “High specific selectivity and Membrane-Active Mechanism of the synthetic centrosymmetric α-helical peptides with Gly-Gly pairs” (Scientific Reports, 2015).

In one assay the test system is S. typhimurium ATCC14028. It counts as cell-based, Salmonella typhimurium. The settings on record: S. typhimurium 14028; lowest concentration preventing more than 99.9% growth; 37 °C, 5 h; representative of three trials. As to the method:
(§1) Minimal bactericidal concentrations (MBCs) were measured using the method which has been adopted from National Committee for Clinical Laboratory Standards (NCCLS), with modifications. In short, 50 μL peptide solutions were pipetted into microtiter plates at various concentrations ranging from 1 to 128 μM. Freshly grown bacteria were added to the each well in a density of 0.5–1 × 10^6 CFUmL^−1. Microtiter plated was incubated at 37 °C for 5 h. Fifty microliters of each incubation mixture was further serially diluted (up to 10^−3 of the initial bacterial concentration), transferred on agar plates and incubated overnight. On the following day, the number of colonies was evaluated and the initial CFU/well retrospectively calculated. The minimum bactericidal concentrations (μM) were determined as the lowest concentration of the peptides that prevented more than 99.9% bacteria growth.

The test system of assay [1] is 3 gram-positive strains tested. The conditions noted are these: 3 gram-positive strains; >128 counted as 256 μM. As to the method:
as §1, with “In” for “Minimal bactericidal concentrations (MBCs) were measured using the method which has been adopted from National Committee for Clinical Laboratory Standards (NCCLS), with modifications. In”
(§2) The therapeutic index (TI) is calculated by the ration of the minimum hemolytic concentration (MHC) to the geometric mean of the MBC (GM) to evaluate cell selectivity of peptides.

Assay [2] has as its system 3 gram-negative strains tested. The experiment in a line: Geometric mean of MBCs and therapeutic index, gram-negative strains. It counts as cell-based. The conditions noted are these: 3 gram-negative strains; >128 counted as 256 μM. As to the method: as §1, with “In” for “Minimal bactericidal concentrations (MBCs) were measured using the method which has been adopted from National Committee for Clinical Laboratory Standards (NCCLS), with modifications. In”
as §2

Assay [3] has as its system E. coli ATCC 25922. The experiment in a line: Flow cytometry, membrane integrity by PI staining. In kind it is cell-based, Escherichia coli. The settings on record: peptide at 1 × MBC, PI 10 μg mL^−1, 30 min at 4 °C. How it is done: The membrane damage was determined by flow cytometry. Briefly, E. coli ATCC 25922 was grown to mid-log phase in MHB at 37 °C, harvested by centrifugation at 1,000 × g for 10 min, washed thrice with PBS and diluted to 10^5 CFU mL^−1 in the same buffer. The peptides at the concentrations of 1 × MBCs were incubated with the bacterial suspension at a fixed PI concentration of 10 μg mL^−1 for 30 min at 4 °C, and followed by the removal of the unbound dye through washing with an excess of PBS. A Fluorescence Activated Cell Sorter (FACS) flow cytometer (Becton–Dickinson, USA) was used to obtain the data with a laser excitation wavelength of 488 nm.
(In general: A flow cytometer gives signals particle by particle.)

The subject of the next assay is S. aureus ATCC29213. In kind it is cell-based, Staphylococcus aureus. The conditions noted are these: S. aureus 29213; lowest concentration preventing more than 99.9% growth; 37 °C, 5 h; representative of three trials. How it is done:
as §1

The test system of assay [4] is E. coli ATCC 25922. It counts as cell-based, Escherichia coli. The settings on record: E. coli 25922; lowest concentration preventing more than 99.9% growth; 37 °C, 5 h; representative of three trials. As to the method: as §1
Another assay concerns E. coli UB1005. In kind it is cell-based, Escherichia coli. The settings on record: E. coli 1005; lowest concentration preventing more than 99.9% growth; 37 °C, 5 h; representative of three trials. How it is done: as §1
For assay [5], the system named is all of the 6 strains tested. The experiment in a line: Geometric mean of MBCs and therapeutic index, all strains. In kind it is cell-based. The settings on record: all 6 strains; >128 counted as 256 μM. How it is done: as §1, with “In” for “Minimal bactericidal concentrations (MBCs) were measured using the method which has been adopted from National Committee for Clinical Laboratory Standards (NCCLS), with modifications. In”
as §2

Converted amounts (≈) assume the structure as drawn.

As to `CC[C@H](C)[C@H](NC(=O)CN)C(=O)NCC(=O)N[C@@H](C)C(=O)N[C@H](C(=O)N[C@@H](CC(C)C)C(=O)N[C@@H](CCCCN)C(=O)N[C@H](C(=O)N[C@@H](CC(C)C)C(=O)N[C@H](C(=O)N[C@H](C(=O)NCC(=O)N[C@@H](CC(C)C)C(=O)N1CCC[C@H]1C(=O)N[C@@H](C)C(=O)N[C@@H](CC(C)C)C(=O)N[C@H](C(=O)N[C@@H](CO)C(=O)N[C@@H](Cc1c[nH]c2ccccc12)C(=O)N[C@H](C(=O)N[C@@H](CCCCN)C(=O)N[C@@H](CCCNC(=N)N)C(=O)N[C@@H](CCCCN)C(=O)N[C@@H](CCCNC(=N)N)C(=O)N[C@@H](CCC(N)=O)C(=O)N[C@@H](CCC(N)=O)C(N)=O)[C@@H](C)CC)[C@@H](C)CC)[C@@H](C)O)[C@@H](C)O)C(C)C)C(C)C` [Melittin, reference compound], the Minimum bactericidal concentration came out at 2 µM (≈ 5.69 µg/mL) in the assay on S. typhimurium ATCC14028, 8 µM (≈ 22.8 µg/mL) with S. aureus ATCC29213, 2 µM (≈ 5.69 µg/mL) in the assay on E. coli ATCC 25922 [4] and 2 µM (≈ 5.69 µg/mL) with E. coli UB1005. Further, the “GM (geometric mean of MBCs), Gram (+)” value in assay [1] stood at 2 µM. For the same compound, the “GM (geometric mean of MBCs), Gram (−)” value in assay [2] was determined as 2 µM. In addition, the “percentage of PI-positive cells” value in the assay with E. coli ATCC 25922 [3] is reported as 99.0%. Also, the “GM (geometric mean of MBCs), Gram (+, −)” value in assay [5] stood at 2 µM.
